Measurements taken from EPA's ToxRefDB 2.

What was measured:
rat [1] = conditions: Subchronic oral toxicity in rodents, sprague dawley, Feed, dose end: 90 day, group: systemic, systemic / in life observation / body weight / body weight gain + systemic / pathology gross / eye / opacity + systemic / pathology …
rat [2] = conditions: Combined chronic toxicity/carcinogenicity, sprague dawley, Oral, Feed, dose end: 2 year, group: systemic
rat [3] = conditions: Multigenerational reproductive toxicity study, sprague dawley, Oral, Feed, dose end: 3 generation
rat [4] = conditions: Subchronic oral toxicity in rodents, sprague dawley, Feed, dose end: 90 day, group: systemic
mouse [5] = conditions: Carcinogenicity; cd1; Oral; Feed; dose end: 18 month; group: systemic; systemic / in life observation / body weight / body weight + systemic / in life observation / body weight / body weight gain + systemic / in…
dog [6] = conditions: Chronic toxicity, beagle, Oral, Capsule, dose end: 53 week, group: systemic
mouse [7] = conditions: Chronic toxicity; cd1; Oral; Feed; dose end: 1 year; group: systemic; systemic / in life observation / body weight / body weight gain + systemic / in life observation / food consumption / food efficiency
rat [8] = conditions: Prenatal developmental toxicity study, wistar, Oral, Gavage/Intubation, dose end: 16 GD
dog [9] = conditions: Subchronic oral toxicity in nonrodent, beagle, Capsule, dose end: 90 day, group: systemic, systemic / in life observation / clinical signs / [other] + systemic / in life observation / clinical signs / feces, discoloration + …
[10] = systemic / in life observation / body weight / body weight + systemic / in life observation / body weight / body weight gain
[11] = group: offspring, systemic / clinical chemistry / tyrosine / tyrosine
[12] = group: parental, systemic / clinical chemistry / tyrosine / tyrosine
[13] = group: parental, systemic / clinical chemistry / tyrosine / tyrosine + systemic / organ weight / liver / relative to body weight
[14] = group: reproductive, reproductive / offspring survival early / litter size / litter size
[15] = group: reproductive, reproductive / offspring survival early / litter size / litter size + reproductive / offspring survival early / birth index / live birth …
[16] = systemic / organ weight / liver / absolute + systemic / organ weight / liver / relative to body weight
[17] = systemic / clinical chemistry / tyrosine / tyrosine + systemic / pathology microscopic / lymph node / erythrophagocytosis
[18] = systemic / clinical chemistry / tyrosine / tyrosine + systemic / pathology microscopic / lymph node / erythrophagocytosis + systemic / in …
[19] = group: developmental, developmental / developmental malformation / bone / unossified + developmental / developmental malformation / bone / bipartite ossification…
[20] = group: maternal, systemic / in life observation / body weight / body weight gain + systemic / in life observation / food consumption / food consumption + …

CS(=O)(=O)c1ccc(C(=O)C2C(=O)CCCC2=O)c([N+](=O)[O-])c1 [Mesotrione]
LEL (rat [1]): 11 mg/kg/day
LOAEL (rat [1]): 11 mg/kg/day
NEL (rat [1]): 0.09 mg/kg/day
NOAEL (rat [1]): 0.09 mg/kg/day
LEL (rat [2]; [10]): 0.06 mg/kg/day
NEL (rat [2]; [10]): < 0.06 mg/kg/day
LOAEL (rat [2]; systemic / organ weight / kidney / absolute + systemic / organ weight / kidney / nos + systemic / organ weight / liver / absolute + systemic…): 0.48 mg/kg/day
LEL (rat [3]; [11]): 0.3 mg/kg/day
LOAEL (rat [3]; [11]): 0.3 mg/kg/day
NEL (rat [3]; [11]): < 0.3 mg/kg/day
NOAEL (rat [3]; [11]): < 0.3 mg/kg/day
LOAEL (rat [3]; [12]): 0.3 mg/kg/day
NOAEL (rat [3]; [12]): < 0.3 mg/kg/day
LEL (rat [3]; [13]): 0.3 mg/kg/day
NEL (rat [3]; [13]): < 0.3 mg/kg/day
LEL (rat [3]; [14]): 1.1 mg/kg/day
LOAEL (rat [3]; [14]): 1.1 mg/kg/day
NEL (rat [3]; [15]): 0.3 mg/kg/day
NOAEL (rat [3]; [15]): 0.3 mg/kg/day
LEL (rat [4]; [16]): 0.21 mg/kg/day
NEL (rat [4]; [16]): < 0.21 mg/kg/day
LOAEL (rat [4]; systemic / pathology microscopic / eye / neovascularization + systemic / pathology microscopic / eye / opacity): 0.63 mg/kg/day
NOAEL (rat [4]; systemic / pathology microscopic / eye / neovascularization + systemic / pathology microscopic / eye / opacity + systemic / clinical …): 0.41 mg/kg/day
LEL (mouse [5]): 898 mg/kg/day
LOAEL (mouse [5]): 898 mg/kg/day
NEL (mouse [5]): 49.7 mg/kg/day
NOAEL (mouse [5]): 49.7 mg/kg/day
LOAEL (dog [6]; [17]): 10 mg/kg/day
NOAEL (dog [6]; [17]): < 10 mg/kg/day
LEL (dog [6]; [18]): 10 mg/kg/day
NEL (dog [6]; [18]): < 10 mg/kg/day
LEL (mouse [7]): 1110 mg/kg/day
LOAEL (mouse [7]): 1110 mg/kg/day
NEL (mouse [7]): 56.2 mg/kg/day
NOAEL (mouse [7]): 56.2 mg/kg/day
LEL (rat [8]; [19]): 100 mg/kg/day
LOAEL (rat [8]; [19]): 100 mg/kg/day
NEL (rat [8]; [19]): < 100 mg/kg/day
NOAEL (rat [8]; [19]): < 100 mg/kg/day
LOAEL (rat [8]; group: maternal, systemic / in life observation / body weight / body weight gain + systemic / in life observation / food consumption / food consumption): 300 mg/kg/day
LEL (rat [8]; [20]): 300 mg/kg/day
NEL (rat [8]; [20]): 100 mg/kg/day
NOAEL (rat [8]; [20]): 100 mg/kg/day
LEL (dog [9]): 600 mg/kg/day
LOAEL (dog [9]): > 1000 mg/kg/day
NEL (dog [9]): 100 mg/kg/day
NOAEL (dog [9]): ≥ 1000 mg/kg/day
